Measurements taken from patent US11098044B2, “Imidazopyridinyl compounds and use thereof for treatment of neurodegenerative disorders” (1ST Biotherapeutics, Inc., priority 2019, dated 2021).

Tests used:
Type in all cases: biochemical
[1] = target: c-Abl (His-tagged recombinant human ABL1) (Homo sapiens (Human), UniProt P00519); test: c-abl Kinase Assay (ADP-Glo); conditions: ATP (25 μM), Abltide substrate
Experimental: ADP-Glo assay kit was purchased from Promega. Magnesium chloride (MgCl2), bovine serum albumin (BSA), ethylene glycol-bis(p-aminoethyl ether)-N,N,N′,N′-tetraacetic acid (EGTA), triton X-100, 1,4-dithiothreitol (DTT) and dimethyl sulfoxide (DMSO) were purchased from Sigma-Aldrich. HEPES buffer was purchased from Gibco. ABL1 kinase and Abltide were purchased from Signalchem.
c-Abl kinase activity was measured by Promega's ADP-Glo™ Assay. In this assay, His-tagged recombinant human ABL1 (0.25 ng/μl) is incubated with 5 μL of compounds (0.5% DMSO), 5 μL of Abltide (0.01 μg/μl) and 5 μL of ATP (25 μM) in buffer (50 mM HEPES, 7.5; 10 mM MgCl2; 1 mM EGTA; 0.05% BSA; 0.01% Triton X-100; 2 mM DTT). The assay was started by incubating the reaction mixture in a 96-well plate at 30° C. for 30-min. After the incubation, 25 μL ADP-Glo reagent was added and the reaction was incubated at room temperature for 40-min to stop the reaction and degrade residual ATP. The ADP product was then converted to ATP by adding 50 μL per well of detection reagent. Luminescence was detected after 30-min room temperature incubation with the Molecular device I3X plate reader. The IC50 values were calculated from a series of percent inhibition values determined at a range of inhibitor concentration using software routines as implemented in the GraphPad Prism 7 software and Sigma Plot 13.0.

LRRK2 G2019S = LRRK2 G2019S (Homo sapiens (Human), UniProt Q5S007, G2019S); test: LRRK2 G2019S Kinase Assay (Adapta); conditions: 100 μM ATP, LRRKtide substrate; read-out: LRRK2_G2019S IC50
Chain of LRRK2 G2019S (Q5S007 whole entry G2019S): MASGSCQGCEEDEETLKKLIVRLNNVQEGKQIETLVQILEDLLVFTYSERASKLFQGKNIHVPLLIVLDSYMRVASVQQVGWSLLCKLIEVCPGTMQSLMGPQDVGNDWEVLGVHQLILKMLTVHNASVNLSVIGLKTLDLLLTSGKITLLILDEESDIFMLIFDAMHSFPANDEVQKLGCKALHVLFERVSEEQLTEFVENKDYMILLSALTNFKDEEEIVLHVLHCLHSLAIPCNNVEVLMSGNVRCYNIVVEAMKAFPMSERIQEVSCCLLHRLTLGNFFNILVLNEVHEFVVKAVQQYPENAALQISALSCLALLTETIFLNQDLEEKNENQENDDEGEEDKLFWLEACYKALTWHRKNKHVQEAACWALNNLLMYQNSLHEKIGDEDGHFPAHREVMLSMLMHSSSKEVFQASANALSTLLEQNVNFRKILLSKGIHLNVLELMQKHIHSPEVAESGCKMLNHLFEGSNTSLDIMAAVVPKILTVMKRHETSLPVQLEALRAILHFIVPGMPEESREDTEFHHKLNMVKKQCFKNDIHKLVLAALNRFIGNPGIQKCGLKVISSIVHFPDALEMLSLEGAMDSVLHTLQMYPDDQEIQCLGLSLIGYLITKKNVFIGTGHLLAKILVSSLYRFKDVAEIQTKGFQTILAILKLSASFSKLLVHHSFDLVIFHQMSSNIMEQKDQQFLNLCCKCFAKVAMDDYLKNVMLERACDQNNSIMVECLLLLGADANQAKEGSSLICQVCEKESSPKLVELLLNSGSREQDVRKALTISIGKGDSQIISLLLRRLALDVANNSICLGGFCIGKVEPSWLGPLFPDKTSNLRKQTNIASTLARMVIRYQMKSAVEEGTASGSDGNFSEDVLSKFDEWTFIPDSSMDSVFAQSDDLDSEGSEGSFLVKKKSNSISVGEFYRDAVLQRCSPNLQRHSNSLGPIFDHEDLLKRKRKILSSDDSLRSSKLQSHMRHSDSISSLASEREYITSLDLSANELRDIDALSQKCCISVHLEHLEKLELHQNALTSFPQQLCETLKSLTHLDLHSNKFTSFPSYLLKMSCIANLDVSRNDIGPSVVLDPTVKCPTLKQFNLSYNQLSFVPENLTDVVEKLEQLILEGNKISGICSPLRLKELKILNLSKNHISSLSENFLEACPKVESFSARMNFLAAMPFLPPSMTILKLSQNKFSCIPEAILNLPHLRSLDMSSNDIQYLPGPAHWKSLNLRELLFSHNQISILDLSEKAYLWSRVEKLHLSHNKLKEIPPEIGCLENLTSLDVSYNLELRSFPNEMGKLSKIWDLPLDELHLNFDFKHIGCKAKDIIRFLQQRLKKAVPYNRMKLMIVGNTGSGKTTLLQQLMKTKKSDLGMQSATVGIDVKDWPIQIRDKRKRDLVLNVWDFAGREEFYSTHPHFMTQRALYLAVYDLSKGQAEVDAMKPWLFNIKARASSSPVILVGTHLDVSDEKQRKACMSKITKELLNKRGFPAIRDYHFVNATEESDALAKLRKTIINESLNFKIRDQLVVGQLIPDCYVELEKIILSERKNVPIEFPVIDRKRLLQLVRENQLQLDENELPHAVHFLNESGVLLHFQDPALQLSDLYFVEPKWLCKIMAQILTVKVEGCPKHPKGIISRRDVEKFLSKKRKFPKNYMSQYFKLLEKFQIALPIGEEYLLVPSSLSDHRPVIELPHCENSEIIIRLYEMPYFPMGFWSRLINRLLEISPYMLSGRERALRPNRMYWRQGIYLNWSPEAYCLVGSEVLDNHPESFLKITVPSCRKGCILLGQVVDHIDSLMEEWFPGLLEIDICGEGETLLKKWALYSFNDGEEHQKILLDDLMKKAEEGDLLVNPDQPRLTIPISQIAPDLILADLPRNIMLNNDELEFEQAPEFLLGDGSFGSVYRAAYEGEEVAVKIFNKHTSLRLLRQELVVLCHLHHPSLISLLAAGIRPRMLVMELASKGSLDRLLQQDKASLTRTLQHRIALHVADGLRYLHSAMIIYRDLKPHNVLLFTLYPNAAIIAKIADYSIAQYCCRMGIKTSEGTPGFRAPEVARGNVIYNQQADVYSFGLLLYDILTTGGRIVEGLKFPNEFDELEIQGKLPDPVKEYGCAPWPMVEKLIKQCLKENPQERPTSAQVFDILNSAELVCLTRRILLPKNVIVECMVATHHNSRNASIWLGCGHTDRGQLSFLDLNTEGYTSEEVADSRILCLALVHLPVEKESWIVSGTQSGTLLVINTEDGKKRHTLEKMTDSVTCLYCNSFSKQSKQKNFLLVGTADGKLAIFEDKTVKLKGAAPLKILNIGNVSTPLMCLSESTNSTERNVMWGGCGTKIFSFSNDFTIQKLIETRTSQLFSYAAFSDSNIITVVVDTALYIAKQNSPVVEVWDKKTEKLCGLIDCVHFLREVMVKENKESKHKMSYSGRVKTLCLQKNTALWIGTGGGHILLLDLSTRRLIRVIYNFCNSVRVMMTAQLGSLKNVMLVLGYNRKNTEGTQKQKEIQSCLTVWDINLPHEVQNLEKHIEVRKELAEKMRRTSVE
Experimental: (§1) The LRRK2 and LRRK2 G2019S kinase assays were performed using the Adapta™ technology in ThermoFisher Scientific. This experiment was carried out according to the supplier's protocol. Briefly, assay conditions were as follows. The mixture of substrate (LRRKtide) and each kinase was prepared in 50 mM Tris pH 8.5, 0.01% BRIJ-35, 10 mM MgCl2, 1 mM EGTA, 0.02% NaN3. Assays were performed in the presence of 70 μM ATP and 100 μM ATP (KmATP) in LRRK2 and LRRK2 G2019S, respectively. The reaction was progressed at room temperature for 1 hour. Upon completion of kinase reaction, 5 μL of Detection Mix was added and after 60 min incubation time, the emission ratio of 665/615 nm was calculated.

LRRK2 (WT) = LRRK2 (WT) (Homo sapiens (Human), UniProt Q5S007); test: LRRK2 Kinase Assay (Adapta); conditions: 70 μM ATP, LRRKtide substrate
Chain of LRRK2 (WT) (Q5S007 whole entry): as the sequence (Q5S007 whole entry G2019S) above, with S2019G counted along it
Experimental: as §1

Chain of c-Abl (His-tagged recombinant human ABL1) (P00519 whole entry): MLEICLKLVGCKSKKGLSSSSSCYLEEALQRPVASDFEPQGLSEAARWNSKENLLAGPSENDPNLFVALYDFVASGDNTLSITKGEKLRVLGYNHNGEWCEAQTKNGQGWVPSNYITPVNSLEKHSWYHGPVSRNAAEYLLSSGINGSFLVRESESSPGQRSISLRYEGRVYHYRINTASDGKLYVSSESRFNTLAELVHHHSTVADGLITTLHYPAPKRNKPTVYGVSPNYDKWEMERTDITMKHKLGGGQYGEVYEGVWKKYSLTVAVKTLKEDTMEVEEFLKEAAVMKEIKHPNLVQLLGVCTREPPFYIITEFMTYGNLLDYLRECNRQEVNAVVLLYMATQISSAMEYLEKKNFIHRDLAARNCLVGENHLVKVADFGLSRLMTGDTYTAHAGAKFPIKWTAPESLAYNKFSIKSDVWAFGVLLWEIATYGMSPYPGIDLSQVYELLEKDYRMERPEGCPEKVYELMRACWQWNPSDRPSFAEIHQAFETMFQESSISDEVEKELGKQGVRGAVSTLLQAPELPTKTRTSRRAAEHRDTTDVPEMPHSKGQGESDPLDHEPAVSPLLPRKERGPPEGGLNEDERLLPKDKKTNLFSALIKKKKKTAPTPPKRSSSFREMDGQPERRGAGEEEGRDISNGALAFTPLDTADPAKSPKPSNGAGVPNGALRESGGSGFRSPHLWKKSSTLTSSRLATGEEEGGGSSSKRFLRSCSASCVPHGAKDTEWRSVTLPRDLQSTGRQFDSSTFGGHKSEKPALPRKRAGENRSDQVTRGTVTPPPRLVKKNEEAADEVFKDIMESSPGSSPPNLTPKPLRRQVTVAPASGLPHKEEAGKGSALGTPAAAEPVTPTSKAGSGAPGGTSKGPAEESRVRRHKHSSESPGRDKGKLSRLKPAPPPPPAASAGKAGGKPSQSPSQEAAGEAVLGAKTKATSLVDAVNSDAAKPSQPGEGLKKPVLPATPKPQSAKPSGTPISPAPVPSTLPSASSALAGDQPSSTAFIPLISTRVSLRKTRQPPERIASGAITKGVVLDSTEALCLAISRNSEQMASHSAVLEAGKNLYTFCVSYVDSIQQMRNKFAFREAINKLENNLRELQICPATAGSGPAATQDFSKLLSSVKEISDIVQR

Structure (SMILES)	IC50 [1] [nM]	IC50 (LRRK2 G2019S) [nM]	IC50 (LRRK2 (WT)) [nM]
Cc1ccncc1-c1ccc2nc(NC(=O)[C@@H]3C[C@@H]3F)cn2c1 [Example 6, (1S,2S)-2-fluoro-N-(6-(4-methylpyridin-3-yl)imidazo[1,2-a]pyridin-2-yl)cyclopropane-1-carboxamide]	10 to 100	101 to 1000	101 to 1000
Cc1c(F)cncc1-c1ccc2nc(NC(=O)[C@@H]3C[C@@H]3F)c(C)n2c1 [Example 10, (1S,2S)-2-fluoro-N-(6-(5-fluoro-4-methylpyridin-3-yl)-3-methylimidazo[1,2-a]pyridin-2-yl)cyclopropane-1-carboxamide]	101 to 1000	> 1000	> 1000
Cc1c(F)cncc1-c1ccc2nc(NC(=O)[C@@H]3C[C@@H]3F)c(Cl)n2c1 [Example 16, (1S,2S)—N-(3-chloro-6-(5-fluoro-4-methylpyridin-3-yl)imidazo[1,2-a]pyridin-2-yl)-2-fluorocyclopropane-1-carboxamide]	101 to 1000	> 1000	> 1000
O=C1Cc2ccc(-c3ccc4nc(NC(=O)[C@@H]5C[C@@H]5F)cn4c3)cc2N1 [Example 35, (1S,2S)-2-fluoro-N-(6-(2-oxoindolin-6-yl)imidazo[1,2-a]pyridin-2-yl)cyclopropane-1-carboxamide]	10 to 100	> 1000	> 1000
O=C(Nc1cn2cc(-c3cnccc3C(F)(F)F)ccc2n1)[C@@H]1C[C@@H]1F [Example 31, (1S,2S)-2-fluoro-N-(6-(4-(trifluoromethyl)pyridin-3-yl)imidazo[1,2-a]pyridin-2-yl)cyclopropane-1-carboxamide]	101 to 1000	101 to 1000	> 1000
O=C(Nc1cn2cc(-c3cnc4[nH]ccc4c3)ccc2n1)[C@@H]1C[C@@H]1F [Example 27, (1S,2S)—N-(6-(1H-pyrrolo[2,3-b]pyridin-5-yl)imidazo[1,2-a]pyridin-2-yl)-2-fluorocyclopropane-1-carboxamide]	< 10	10 to 100	101 to 1000
O=C(Nc1cn2cc(-c3cc[nH]n3)ccc2n1)[C@@H]1C[C@@H]1F [Example 18, (1S,2S)—N-(6-(1H-pyrazol-3-yl)imidazo[1,2-a]pyridin-2-yl)-2-fluorocyclopropane-1-carboxamide]	101 to 1000	101 to 1000	101 to 1000
Cc1c[nH]c2ncc(-c3ccc4nc(NC(=O)[C@@H]5C[C@@H]5F)cn4c3)cc12 [Example 53, (1S,2S)-2-fluoro-N-(6-(3-methyl-1H-pyrrolo[2,3-b]pyridin-5-yl)imidazo[1,2-a]pyridin-2-yl)cyclopropane-1-carboxamide]	< 10	10 to 100	101 to 1000
Cc1c(F)cccc1-c1ccc2nc(NC(=O)C3CC(F)(F)C3)cn2c1 [Example 79, 3,3-difluoro-N-(6-(3-fluoro-2-methylphenyl)imidazo[1,2-a]pyridin-2-yl)cyclobutanecarboxamide]	10 to 100	101 to 1000	101 to 1000
Cc1ccc2[nH]cc(C)c2c1-c1ccc2nc(NC(=O)[C@@H]3C[C@@H]3F)cn2c1 [Example 63, (1S,2S)—N-(6-(3,5-dimethyl-1H-indol-4-yl)imidazo[1,2-a]pyridin-2-yl)-2-fluorocyclopropanecarboxamide]	< 10	10 to 100	101 to 1000
Cc1cccc(F)c1-c1ccc2nc(NC(=O)[C@@H]3C[C@@H]3F)c(C)n2c1 [Example 9, (1S,2S)-2-fluoro-N-(6-(2-fluoro-6-methylphenyl)-3-methylimidazo[1,2-a]pyridin-2-yl)cyclopropane-1-carboxamide]	10 to 100	101 to 1000	101 to 1000
Cc1cc(N)ncc1-c1ccc2nc(NC(=O)[C@@H]3C[C@@H]3F)cn2c1 [Example 49, (1S,2S)—N-(6-(6-amino-4-methylpyridin-3-yl)imidazo[1,2-a]pyridin-2-yl)-2-fluorocyclopropane-1-carboxamide]	< 10	> 1000	> 1000

Continued, values first:

IC50 [1] [nM]	IC50 (LRRK2 G2019S) [nM]	IC50 (LRRK2 (WT)) [nM]	Structure (SMILES)
< 10	10 to 100	101 to 1000	Cc1c(-c2ccc3nc(NC(=O)[C@@H]4C[C@@H]4F)cn3c2)ccc(F)c1F [Example 44, (1S,2S)—N-(6-(3,4-difluoro-2-methylphenyl)imidazo[1,2-a]pyridin-2-yl)-2-fluorocyclopropane-1-carboxamide]
101 to 1000	> 1000	> 1000	CC(=O)NCc1c(F)cccc1-c1ccc2nc(NC(=O)[C@@H]3C[C@@H]3F)cn2c1 [Example 75, (1S,2S)—N-(6-(2-(acetamidomethyl)-3-fluorophenyl)imidazo[1,2-a]pyridin-2-yl)-2-fluorocyclopropanecarboxamide]
< 10	101 to 1000	101 to 1000	Cc1cc(Cl)ccc1-c1ccc2nc(NC(=O)[C@@H]3C[C@@H]3F)cn2c1 [Example 29, (1S,2S)—N-(6-(4-chloro-2-methylphenyl)imidazo[1,2-a]pyridin-2-yl)-2-fluorocyclopropane-1-carboxamide]
< 10	10 to 100	10 to 100	O=C(Nc1cn2cc(-c3cccc(F)c3Cl)ccc2n1)[C@@H]1C[C@@H]1F [Example 61, (1S,2S)—N-(6-(2-chloro-3-fluorophenyl)imidazo[1,2-a]pyridin-2-yl)-2-fluorocyclopropanecarboxamide]
10 to 100	10 to 100	101 to 1000	Cc1c(F)cccc1-c1ccc2nc(NC(=O)C3CC(F)C3)cn2c1 (stereo not drawn) [Example 78, 3-fluoro-N-(6-(3-fluoro-2-methylphenyl)imidazo[1,2-a]pyridin-2-yl)cyclobutanecarboxamide]
< 10	101 to 1000	101 to 1000	Cc1c(-c2ccc3nc(NC(=O)[C@@H]4C[C@@H]4F)cn3c2)ccc(Cl)c1F [Example 46, (1S,2S)—N-(6-(4-chloro-3-fluoro-2-methylphenyl)imidazo[1,2-a]pyridin-2-yl)-2-fluorocyclopropane-1-carboxamide]
< 10	101 to 1000	101 to 1000	Cc1c(Cl)cccc1-c1ccc2nc(NC(=O)[C@@H]3C[C@@H]3F)cn2c1 [Example 30, (1S,2S)—N-(6-(3-chloro-2-methylphenyl)imidazo[1,2-a]pyridin-2-yl)-2-fluorocyclopropane-1-carboxamide]
> 1000	> 1000	> 1000	CNCc1c(F)cccc1-c1ccc2nc(NC(=O)[C@@H]3C[C@@H]3F)cn2c1 [Example 80, (1S,2S)-2-fluoro-N-(6-(3-fluoro-2-((methylamino)methyl)phenyl)imidazo[1,2-a]pyridin-2-yl)cyclopropanecarboxamide]
< 10	101 to 1000	> 1000	COCc1c(F)cccc1-c1ccc2nc(NC(=O)[C@@H]3C[C@@H]3F)cn2c1 [Example 64, (1S,2S)-2-fluoro-N-(6-(3-fluoro-2-(methoxymethyl)phenyl)imidazo[1,2-a]pyridin-2-yl)cyclopropanecarboxamide]
< 10	10 to 100	10 to 100	Cc1ccc(O)cc1-c1ccc2nc(NC(=O)[C@@H]3C[C@@H]3F)cn2c1 [Example 12, (1S,2S)-2-fluoro-N-(6-(5-hydroxy-2-methylphenyl)imidazo[1,2-a]pyridin-2-yl)cyclopropane-1-carboxamide]
< 10	> 1000	> 1000	O=C(Nc1cn2cc(-c3cccc(F)c3CO)ccc2n1)[C@@H]1C[C@@H]1F [Example 57, (1S,2S)-2-fluoro-N-(6-(3-fluoro-2-(hydroxymethyl)phenyl)imidazo[1,2-a]pyridin-2-yl)cyclopropane-1-carboxamide]
< 10	10 to 100	10 to 100	COc1c(F)cccc1-c1ccc2nc(NC(=O)[C@@H]3C[C@@H]3F)cn2c1 [Example 59, (1S,2S)-2-fluoro-N-(6-(3-fluoro-2-methoxyphenyl)imidazo[1,2-a]pyridin-2-yl)cyclopropanecarboxamide]
< 10	101 to 1000	101 to 1000	Cc1ccc(C#N)cc1-c1ccc2nc(NC(=O)[C@@H]3C[C@@H]3F)cn2c1 [Example 17, (1S,2S)—N-(6-(5-cyano-2-methylphenyl)imidazo[1,2-a]pyridin-2-yl)-2-fluorocyclopropane-1-carboxamide]
